Here are results for four substances from paper PMC8875629, “Novel Antioxidant Peptides from Crassostrea Hongkongensis Improve Photo-Oxidation in UV-Induced HaCaT Cells” (Marine Drugs, 2022).

Series [1] deals with MMP-1. In words: MMP-1 expression in UV-irradiated HaCaT cells, ELISA. Type of series: cell-based, human. As to the method:
PINP and MMP-1 levels were measured in cell culture media using enzyme-linked immunoassay (ELISA) kits (Yutong Biological Technology Co., Changzhou, China). All experiments were conducted according to the manufacturer’s instructions. Purified Human MMP-1 antibody is coated in microtiter plate wells, making solid-phase antibodies. Then add the sample to the wells, a Combined antibody which With HRP labeled, become antibody-antigen-enzyme-antibody complex, after washing Completely, Add TMB substrate solution, TMB substrate becomes blue color At HRP enzyme-catalyzed, the reaction is terminated by the addition of a sulphuric acid solution and the color change is measured spectrophotometrically at a wavelength of 450 nm. The concentration of MMP-1 in the samples is then determined by comparing the O.D. of the samples to the standard curve. The content of PINP was determined on the same principles.

The subject of series [2] is HaCaT cells. Put plainly: Cytotoxicity in HaCaT cells, CCK-8. The following applies: serum-free medium.
Method: Cells were cultured in Dulbecco’s modified Eagle’s medium (DMEM; Gibco, Thermo Fisher Scientific, Waltham, MA, USA) supplemented with 10% heat-inactivated fetal bovine serum (FBS; Gibco) and 1% antibiotics [100 U/mL penicillin and 100 µg/mL streptomycin (Invitrogen, Thermo Fisher Scientific, Waltham, MA, USA)] at 37 °C in a humidified 5% CO2 incubator (SANYO, Ōsaka, JPN). HaCaT cells were subcultured when they reached 80% to 90% confluence. Cells were cultured for 12 h in 10% heat-inactivated FBS before being used for experiments. When required, HaCaT cells were treated with OPs in a serum-free medium and incubated under the same conditions (Figure 15B).
Cell viability was evaluated by measuring the dehydrogenase-catalyzed formation of a yellow dye in living cells. In the presence of electronic coupling reagents, WST-8 (tetrazolium salt 2-(2-methoxy-4-nitrophenyl)-3-(4-nitrophenyl)-5-(2,4-disulfophenyl) -2H-tetrazolium, monosodium salt (CCK-8)) is reduced to formazan, a yellow dye, by dehydrogenase.
Cells were seeded on 96-well plates at a density of 1 × 10^4 cells/well; viability was measured 24 h after UV-irradiation. […] Absorbance was measured using a microplate reader (Varioskan Flash; Thermo, Waltham, MA, USA) at λ = 450 nm. […] Cytotoxicity and optimal concentrations of OPs were determined using similar steps.
For series [3], the system named is UV-irradiated HaCaT cells. In words: Cell viability of UV-irradiated HaCaT cells after pretreatment, CCK-8. Format: cell-based, human. The following applies: pretreatment one day, UV-irradiation. As to the method:
For UV-irradiation (Combined UVA and UVB irradiation), HaCaT cells were cultured in 6-well plates (3 × 10^5 cells/well), 12-well plates (1 × 10^5 cells/well), and 96-well plates (1 × 10^4 cells/well) for one day. When cells sufficiently adhered, the medium was removed and cells were washed twice with PBS. Each well contained a thin layer of PBS to keep cell surfaces from drying. The lids of culture plates were opened, and the plates were placed under a UV lamp emitting both UVA (365 nm) and UVB (310 nm) light for 8 min. Irradiation dose was calculated as: Dose (mJ/cm^2) = Exposure time (s) × Intensity (mW/cm^2). After irradiation, cells were washed with warm PBS and incubated with serum-free DMEM for one day or longer.

As to “AIVAEVNEAAK [Peptide I, synthesized peptide identified in OP5-3]”, the “Abnormal upregulation of MMP-1 (synthetic peptides)” value in series [1] is listed as “most prominent effect”. Take “LICIVPK [Peptide VI, synthesized peptide identified in OP5-3]”: in series [2], the Concentration without cytotoxicity was 0 to 600000 ng/mL. In series [3], the “Effect on survival of UV-irradiated HaCaT cells” value was “beneficial effects”. As to “TALAIDAIINQK [Peptide III, synthesized peptide identified in OP5-3]”, in series [3], the “Effect on survival of UV-irradiated HaCaT cells” value is “beneficial effects”. With GVAMNPVDHPHGGGEGR [Peptide V], the Concentration without cytotoxicity in series [2] lay within 0 to 200000 ng/mL.
